Experimental data as given in patent US20260174766A1, “COMBINATION OF MENIN INHIBITOR(S) AND IMMUNOPROTEASOME INHIBITOR(S) FOR TREATMENT OF LEUKEMIA” (Medizinische Hochschule Hannover, priority 2022, published 2026).

Columns and labels:
[1] = test system: leukemic stem cell (LSC), MLL-AF9; experiment: Limiting dilution assay of MLL-AF9 leukemic bone marrow cells treated ex vivo (ELDA); type: in vivo, mouse; details: 200 nM PR-957 ex vivo 48 hours
non-MLLr cell lines = experiment: Cell growth (cell counting after trypan blue exclusion) of non-MLLr cell lines; type: cell-based, human; details: 50 nM or 100 nM PR-957, 96 hours, vs DMSO; FIG. 1G right
Protocol: (§1) MOLM-13, MONO-MAC-6, THP-1, KOPN-8, ML-2, MV-4;11, OCI-AML3, U-937, KASUMI-1, K-562, HL-60 and LAMA-84 cells were purchased from DSMZ (Braunschweig, Germany). Cas9-Blast cell lines are subclones of the respective cell lines and stably transduced with lentiCas9-Blast (Addgene plasmid #52962). Cells were cultured in RPMI 1640 medium (Thermo Fisher Scientific, Waltham, MA, USA) supplemented with 10-20% FBS (Thermo Fisher Scientific) in a humid atmosphere of 5% CO2 at 37° C. MV4;11 cells harboring Menin-inhibitor resistance mediating mutations of Menin were generated by CRISPR-Cas9 technology.
(§2) Cellular proliferation was assessed by cell counting after trypan blue exclusion. Apoptosis of cells was measured by flow cytometry using Annexin V/SYTOX® Blue staining following the manufacturer's instruction.

MLLr cell lines = experiment: Cell growth (cell counting after trypan blue exclusion) of MLLr cell lines; type: cell-based, human; details: 50 nM or 100 nM PR-957, 96 hours, vs DMSO; FIG. 1G left
Protocol: as §1, §2

MLL-AF9 driven leukemia = experiment: MLL-AF9 driven murine leukemia, in vivo PR-957 treatment of primary recipients; design: species or system mouse
Protocol: For induction of MLL-AF9 (MA9) driven leukemia we used established retroviral MSCV-GFP-based vectors to express MA9 in hematopoietic stem- and progenitor cells (Lineage-negative, Sca1-positive, Kit-positive [LSK] cells). In detail, bone marrow (BM) of LMP7+/+ or LMP7−/− littermates was isolated following standard procedures from 6-12-weeks-old mice. Lineage-depletion was performed using Streptavidin Particles Plus-DM (BD Biosciences, Heidelberg, Germany) and a DynaMag magnet (Thermo Fisher Scientific). Lineage-depleted cells were stained with streptavidin BV421, KIT AF647 and Sca-1 FITC or PE antibodies (all antibodies were received from Biolegend, San Diego, CA, USA) and then used for cell sorting. Sorted LSK cells were pre-stimulated on RetroNectin-coated plates (Takara Bio USA, Inc., Mountain View, CA, USA) in serum-free medium (StemSpan™ SFEM, StemCell Technologies, Vancouver, Canada) supplemented with SCF, TPO, IL-3 and IL-6 (all cytokines from PeproTech, Hamburg, Germany) overnight. 20 hours after stimulation, LSK cells were infected twice (8 hours gap) by spinfection (872 g, 1.5 hours, 33° C.) with retroviral particles containing the oncogenic vectors. Cells were analyzed 48 hours after first infection for GFP-expression using flow cytometry and 7.5×10^4 GFP+ cells were injected into sublethally irradiated (7 Gy, single dose) primary recipient mice (C57BL/6J; females). For serial transplantation of leukemia, 3×10^5 whole bone marrow cells of diseased animals were transplanted into secondary C57BL/6J recipient mice (sublethal irradiation, 7 Gy, single dose). […]
To characterize the effects of LMP7/PSMB8 inhibition in more detail, differentiation following PR-957 treatment was assessed. […]

[2] = test system: MLL-rearranged murine leukemic cells; experiment: Methylcellulose colony-forming assay, MLL-rearranged murine leukemic cells; type: cell-based, mouse
Protocol: Primary mouse bone marrow (BM) cells (transduced with MLL-AF9/KRAS, MLL-AF6, or AML1-ETO/KRAS) were seeded in MethoCult GF M3434 (StemCell Technologies) at a concentration of 1×10^3 cells/replicate. Colonies propagated in culture were scored at day 8. For re-plating of primary mouse BM cells, colonies were harvested from the methylcellulose medium, washed with PBS/1% FBS and seeded again at a concentration of 1×10^3 cells/replicate. MOLM-13 or ML-2 cells infected with either control or PSMB8/LMP7-specific shRNAs were plated at a concentration of 1×10^3 cells in MethoCult H4230 (StemCell Technologies) supplemented with 20% FBS and colony numbers were counted on day 10-14.

[3] = test system: human MLL-rearranged AML cell lines; experiment: Cell cycle analysis (EdU, % cells in S phase); type: cell-based; details: 100 nM PR-957, 24 hours; MOLM-13, MV-4;11, ML-2, KOPN-8; FIG. 1I
Protocol: Immunophenotyping of immature and mature cell compartments and of leukemic cells was performed as described before (Heidel et al., 2013; Heidel et al., 2012). The antibodies used for cell surface staining are provided in Table 1 at the end of section 2 (“Key Resource Table”). Cells were stained in PBS/1% FBS for 1.5 hours at 4° C. SYTOX® Blue Dead Cell Stain (Life Technologies, Darmstadt, Germany) was used to exclude dead cells. Flow cytometry was performed on a LSR-Fortessa or FACS Canto II cytometer (Becton Dickinson, Heidelberg, Germany). Cell cycle analysis was performed using the Click-iT™ Plus EdU Alexa Fluor™ 647 Assay Kit (Thermo Scientific, Waltham, MA, USA) as per the manufacturer's instructions.
Samples were labeled for FACs based analysis of cell cycle using the Click-iTR EdU assay. n=3 independent experiments; paired t test.

COc1ccc(C[C@H](NC(=O)[C@H](C)NC(=O)CN2CCOCC2)C(=O)N[C@@H](Cc2ccccc2)C(=O)[C@]2(C)CO2)cc1 [PR-957, (2S)-3-(4-methoxyphenyl)-N-[(2S)-1-[(2S)-2-methyloxiran-2-yl]-1-oxo-3-phenylpropan-2-yl]-2-[[(2S)-2-[(2-morpholin-4-ylacetyl)amino]propanoyl]amino]propanamide]
reduction in LSC frequency compared to diluent treated controls [1]: more than log-fold reduction
LSC frequency ([1]; ELDA, DMSO 1/4550, FIG. 2H,I): 1/57610
cell growth in non-MLLr cell lines (non-MLLr cell lines): largely unaffected
cell growth in MLLr cell lines (MLLr cell lines): dose-dependent and specific reduction of cell growth
leukemic cells in the peripheral blood and spleen size (MLL-AF9 driven leukemia; 6 mg/kg i.v. QD 3 weeks (5 days per week), 3 days after discontinuation, vs diluent, FIG. 2B,C): reduced compared to diluent treated controls
abundance of leukemic cells in the bone marrow (MLL-AF9 driven leukemia; 6 mg/kg i.v. QD 3 weeks (5 days per week), control 69.8%, FIG. 2D): 42.9%
frequency of L-GMP populations (MLL-AF9 driven leukemia; 6 mg/kg i.v. QD 3 weeks, diluent control 3.57+/-0.52%, p=0.0087, FIG. 2E): 2.25+/−0.8%
colony size and shape ([2]; MLL-AF9 transformed leukemia): reduction of colony size and changes in colony shape
clonogenic potential (colony counts) ([2]; nanomolar concentrations (100 nM or 200 nM), serial replating, FIG. 2A): profound dose dependent reduction of clonogenic potential
cell cycle activity (% of cells in S phase) [3]: reduced cell cycle activity
